From the supplement of paper PMC11208160

test: recombinant barcode read abundance after kanamycin selection (control-corrected) (log10(CPM+1)); higher = more efficient recombination; sequences stand for … in AGTGCAGAGAAAATCGGCCAGTTTTCTCTGCCTGCAGTCCGCATGCCGT…AGATTTATGCAGCGGACTGCCTTTCTCCCAAAGTGATAAACCGGACAGTATCATGGACCGGTTTTCCCGGTAATCCGTATTTGCAAGGTTGGTTTCACT; site = the 11-nt target
Outline: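 Pooled E. coli screen pairing targets with IS621 bridge RNA target-binding loops. Each oligo (promoter, target, barcode, J23119-driven first 104 bridge RNA bases) was Gibson-cloned into a vector with the remaining 73 bp and T7-inducible recombinase, then co-electroporated with a donor plasmid. Two replicates each were plated on chloramphenicol/ampicillin LB agar (control) or chloramphenicol/ampicillin/kanamycin with 0.1 mM IPTG. Recombination efficiency is recombinant-junction barcode counts as CPM, averaged, control-corrected, reported as log10(CPM+1).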
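Note: IS621 recombinase and bridge RNA in Escherichia coli cells.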

Going from “CTCCGTCCTTGGGTTCTAACCTGTTGCGT (site CTCCGTCCTAC)” to “CTCGAATCTTGGGTTCTAACCTGTTGCTT (site CTCGAATCTAA)”, the “recombinant barcode read abundance (log10)” value falls from 2.54 to 0.897.

Compared with “CTCGAATCTTGGGTTCTAACCTGTTGCTT (site GGGATCCCTCC)”, “CTCGACCCTTGGGTTCTAACCTGTTGCAT (site CTCGACCCTAT)” is higher in “recombinant barcode read abundance (log10)” value: 0.101 for the first, 2.4 for the second.

First: CTCGACCCTTGGGTTCTAACCTGTTGCAT (site GGGCCTGCTTG)
Second: CTCGATTCTTGGGTTCTAACCTGTTGCAT (site CTCAATTCTAT)
The “recombinant barcode read abundance (log10)” value of the first is higher: 1.66 for the first, 0.355 for the second.

First: CTCGATTCTTGGGTTCTAACCTGTTGCAT (site CTCCATTCTAT)
Second: CTCGATTCTTGGGTTCTAACCTGTTGCAT (site CTCGATTCTAT)
The “recombinant barcode read abundance (log10)” value of the first is lower: 0.194 for the first, 1.66 for the second.

“CTCGATTCTTGGGTTCTAACCTGTTGCAT (site CTCTATTCTAT)” and “CTCGGTTCTTGGGTTCTAACCTGTTGCCT (site CTCGGTACTTG)” are within 0.2 log units of each other in “recombinant barcode read abundance (log10)” value: 0.213 for the first, 0.128 for the second.

First: CTCGGTTCTTGGGTTCTAACCTGTTGCCT (site CTCGGTTCTAG)
Second: CTCGTAACTTGGGTTCTAACCTGTTGCCT (site CTCGTAACTAG)
The “recombinant barcode read abundance (log10)” value of the first is higher: 1.41 for the first, 0.361 for the second.

“CTCGTAACTTGGGTTCTAACCTGTTGCCT (site CTCGTCACTAG)” and “CTCGTAACTTGGGTTCTAACCTGTTGCCT (site CTCGTGACTAG)” are within 0.2 log units of each other in “recombinant barcode read abundance (log10)” value: 0.0602 for the first, 0.123 for the second.

Going from “CTCGTAACTTGGGTTCTAACCTGTTGCCT (site CTCGTTACTAG)” to “CTCTACACTTGGGTTCTAACCTGTTGCTG (site CTCGACACTCA)”, the “recombinant barcode read abundance (log10)” value falls from 1.13 to 0.116.

First: CTCTACACTTGGGTTCTAACCTGTTGCTG (site CTCTACACTCA)
Second: CTCTACTCTTGGGTTCTAACCTGTTGCCT (site CTCTACTCTAG)
The “recombinant barcode read abundance (log10)” value of the first is lower: 1.13 for the first, 2.02 for the second.

“CTCTACTCTTGGGTTCTAACCTGTTGCCT (site TTCTACTCTAG)” and “CTCTAGACTTGGGTTCTAACCTGTTGCTG (site CTCAAGACTCC)” are within 0.2 log units of each other in “recombinant barcode read abundance (log10)” value: 0.0366 for the first, 0.0495 for the second.

Compared with “CTCTAGACTTGGGTTCTAACCTGTTGCTG (site CTCTAGACTCA)”, “CTCTAGGCTTGGGTTCTAACCTGTTGCCT (site CTCTAGGCTAG)” is lower in “recombinant barcode read abundance (log10)” value: 1.82 for the first, 0.0135 for the second.

“CTCTAGGCTTGGGTTCTAACCTGTTGCCT (site CTCTCGGCTAG)” and “CTCTAGGCTTGGGTTCTAACCTGTTGCCT (site CTCTGGGCTAG)” are within 0.2 log units of each other in “recombinant barcode read abundance (log10)” value: 0.186 for the first, 0.202 for the second.

“CTCTAGGCTTGGGTTCTAACCTGTTGCCT (site CTCTTGGCTAG)” and “CTCTCATCTTGGGTTCTAACCTGTTGCCT (site CTCTCATCTAA)” are within 0.2 log units of each other in “recombinant barcode read abundance (log10)” value: 0.13 for the first, 0.125 for the second.

“CTCTCATCTTGGGTTCTAACCTGTTGCCT (site CTCTCATCTAG)” and “CTCTCGTCTTGGGTTCTAACCTGTTGCCT (site CTCTCGTCTAA)” are within 0.2 log units of each other in “recombinant barcode read abundance (log10)” value: 0.149 for the first, 0.11 for the second.

Going from “CTCTCGTCTTGGGTTCTAACCTGTTGCCT (site CTCTCGTCTAC)” to “CTCTCGTCTTGGGTTCTAACCTGTTGCCT (site CTCTCGTCTAG)”, the “recombinant barcode read abundance (log10)” value rises from 0.119 to 0.944.

“CTCTCGTCTTGGGTTCTAACCTGTTGCCT (site CTCTCGTCTAT)” and “CTCTCTTCTTGGGTTCTAACCTGTTGCCT (site CTCTCTCCTAG)” are within 0.2 log units of each other in “recombinant barcode read abundance (log10)” value: 0.0858 for the first, 0.0216 for the second.

“CTCTCTTCTTGGGTTCTAACCTGTTGCCT (site CTCTCTTCTAG)” and “CTCTGAGCTTGGGTTCTAACCTGTTGCAG (site ACTGCTCCTAG)” are within 0.2 log units of each other in “recombinant barcode read abundance (log10)” value: 0.114 for the first, 0.0584 for the second.

First: CTCTGAGCTTGGGTTCTAACCTGTTGCAG (site CTCTGAGCTCT)
Second: CTCTGCTCTTGGGTTCTAACCTGTTGCTT (site CACTCCTCTAA)
The “recombinant barcode read abundance (log10)” value of the first is higher: 0.538 for the first, 0.0518 for the second.

“CTCTGCTCTTGGGTTCTAACCTGTTGCTT (site CTCTGCTCTAA)” and “CTCTGTCCTTGGGTTCTAACCTGTTGCTG (site CTCTGTCCTCA)” are within 0.2 log units of each other in “recombinant barcode read abundance (log10)” value: 0.245 for the first, 0.374 for the second.

“CTCTGTCCTTGGGTTCTAACCTGTTGCTG (site GCTGAGACTAC)” and “CTCTTCCCTTGGGTTCTAACCTGTTGCTT (site CTATTCCCTCA)” are within 0.2 log units of each other in “recombinant barcode read abundance (log10)” value: 0.0997 for the first, 0.155 for the second.

First: CTCTTCCCTTGGGTTCTAACCTGTTGCTT (site CTCTTCCCTAA)
Second: CTCTTGTCTTGGGTTCTAACCTGTTGCTG (site CTCGTGTCTCT)
The “recombinant barcode read abundance (log10)” value of the first is higher: 0.594 for the first, 0.0114 for the second.

Compared with “CTCTTGTCTTGGGTTCTAACCTGTTGCTG (site CTCTTGTCTCA)”, “CTGAGAGCTTGGGTTCTAACCTGTTGCCT (site CAGAGAGCTAG)” is lower in “recombinant barcode read abundance (log10)” value: 1.01 for the first, 0.319 for the second.

“CTGAGAGCTTGGGTTCTAACCTGTTGCCT (site CCGAGAGCTAG)” and “CTGAGAGCTTGGGTTCTAACCTGTTGCCT (site CGGAGAGCTAG)” are within 0.2 log units of each other in “recombinant barcode read abundance (log10)” value: 0.058 for the first, 0.156 for the second.

First: CTGAGAGCTTGGGTTCTAACCTGTTGCCT (site CTGAGAGCTAG)
Second: CTGAGCCCTTGGGTTCTAACCTGTTGCAT (site CGGAGCCCTCT)
The “recombinant barcode read abundance (log10)” value of the first is higher: 1.61 for the first, 0.0964 for the second.

Going from “CTGAGCCCTTGGGTTCTAACCTGTTGCAT (site CTGAGCCCTAT)” to “CTGAGGACTTGGGTTCTAACCTGTTGCCT (site ATGAGGACTAG)”, the “recombinant barcode read abundance (log10)” value falls from 1.09 to 0.0813.

Going from “CTGAGGACTTGGGTTCTAACCTGTTGCCT (site CTGAGGACTAG)” to “CTGAGGACTTGGGTTCTAACCTGTTGCCT (site GTGAGGACTAG)”, the “recombinant barcode read abundance (log10)” value falls from 1.29 to 0.0454.

Compared with “CTGAGGACTTGGGTTCTAACCTGTTGCCT (site TTGAGGACTAG)”, “CTGATCACTTGGGTTCTAACCTGTTGCCT (site CTGATAACTAG)” is lower in “recombinant barcode read abundance (log10)” value: 0.325 for the first, 0.0217 for the second.

First: CTGATCACTTGGGTTCTAACCTGTTGCCT (site CTGATCACTAG)
Second: CTGATCACTTGGGTTCTAACCTGTTGCCT (site CTGATGACTAG)
The “recombinant barcode read abundance (log10)” value of the first is higher: 1.03 for the first, 0.0708 for the second.

Going from “CTGATCACTTGGGTTCTAACCTGTTGCCT (site CTGATTACTAG)” to “CTGCACCCTTGGGTTCTAACCTGTTGCAG (site CTGCACCCTCT)”, the “recombinant barcode read abundance (log10)” value rises from 0.202 to 0.477.

“CTGCACCCTTGGGTTCTAACCTGTTGCAG (site GCGCACCCTCT)” and “CTGCATACTTGGGTTCTAACCTGTTGCCT (site CAGCATACTAG)” are within 0.2 log units of each other in “recombinant barcode read abundance (log10)” value: 0.0743 for the first, 0.17 for the second.

Going from “CTGCATACTTGGGTTCTAACCTGTTGCCT (site CCGCATACTAG)” to “CTGCATACTTGGGTTCTAACCTGTTGCCT (site CGGCATACTAG)”, the “recombinant barcode read abundance (log10)” value falls from 0.217 to 0.0131.

First: CTGCATACTTGGGTTCTAACCTGTTGCCT (site CTGCATACTAG)
Second: CTGCGCCCTTGGGTTCTAACCTGTTGCCT (site CTGAGCCCTAG)
The “recombinant barcode read abundance (log10)” value of the first is higher: 0.86 for the first, 0.0517 for the second.

Going from “CTGCGCCCTTGGGTTCTAACCTGTTGCCT (site CTGCGCCCTAG)” to “CTGCGCCCTTGGGTTCTAACCTGTTGCCT (site CTGGGCCCTAG)”, the “recombinant barcode read abundance (log10)” value falls from 1.1 to 0.249.

“CTGCGCCCTTGGGTTCTAACCTGTTGCCT (site CTGTGCCCTAG)” and “CTGCGTGCTTGGGTTCTAACCTGTTGCCT (site CAGCGTGCTAG)” are within 0.2 log units of each other in “recombinant barcode read abundance (log10)” value: 0.567 for the first, 0.503 for the second.

First: CTGCGTGCTTGGGTTCTAACCTGTTGCCT (site CCGCGTGCTAG)
Second: CTGCGTGCTTGGGTTCTAACCTGTTGCCT (site CGGCGTGCTAG)
The “recombinant barcode read abundance (log10)” value of the first is higher: 0.909 for the first, 0.176 for the second.

“CTGCGTGCTTGGGTTCTAACCTGTTGCCT (site CTGCGTGCTAG)” and “CTGCTACCTTGGGTTCTAACCTGTTGCCT (site CAGCTACCTAG)” are within 0.2 log units of each other in “recombinant barcode read abundance (log10)” value: 0.83 for the first, 0.706 for the second.

Compared with “CTGCTACCTTGGGTTCTAACCTGTTGCCT (site CCGCTACCTAG)”, “CTGCTACCTTGGGTTCTAACCTGTTGCCT (site CGGCTACCTAG)” is lower in “recombinant barcode read abundance (log10)” value: 0.386 for the first, 0.0908 for the second.

“CTGCTACCTTGGGTTCTAACCTGTTGCCT (site CTGCTACCTAG)” and “CTGCTAGCTTGGGTTCTAACCTGTTGCAG (site CTGCTAGCTCT)” are within 0.2 log units of each other in “recombinant barcode read abundance (log10)” value: 1.13 for the first, 1.08 for the second.

Compared with “CTGCTAGCTTGGGTTCTAACCTGTTGCAG (site GACAGGCCTAC)”, “CTGGAACCTTGGGTTCTAACCTGTTGCGG (site CTAGAAGCTCC)” is lower in “recombinant barcode read abundance (log10)” value: 0.289 for the first, 0 for the second.

Compared with “CTGGAACCTTGGGTTCTAACCTGTTGCGG (site CTGGAACCTCC)”, “CTGGAGTCTTGGGTTCTAACCTGTTGCCT (site CTGGAGTCTAG)” is higher in “recombinant barcode read abundance (log10)” value: 1.25 for the first, 2.33 for the second.

“CTGGAGTCTTGGGTTCTAACCTGTTGCCT (site CTGGCGTCTAG)” and “CTGGAGTCTTGGGTTCTAACCTGTTGCCT (site CTGGGGTCTAG)” are within 0.2 log units of each other in “recombinant barcode read abundance (log10)” value: 0.322 for the first, 0.412 for the second.

First: CTGGAGTCTTGGGTTCTAACCTGTTGCCT (site CTGGTGTCTAG)
Second: CTGGTATCTTGGGTTCTAACCTGTTGCTT (site CTGGTATCTAA)
The “recombinant barcode read abundance (log10)” value of the first is higher: 0.793 for the first, 0.509 for the second.

“CTGGTATCTTGGGTTCTAACCTGTTGCTT (site GGCTACCCTTT)” and “CTGGTGTCTTGGGTTCTAACCTGTTGCCT (site CTGGAGTCTAG)” are within 0.2 log units of each other in “recombinant barcode read abundance (log10)” value: 0.0591 for the first, 0.0957 for the second.
